Results published in patent US4604380A, “C-23-substituted mycaminosyltylonolide compounds, pharmaceutical compositions and methods of use” (Eli Lilly and Company, priority 1985, dated 1986).
Converted amounts (≈) assume the structure as drawn. “And” between values parts separate entries of the source, which are not always exact repeats. Identical values can stand only once. Like-named read-outs stand apart in the source and are kept apart here.

How the values were obtained:
[1] = system: Pasteurella multocida 40G; experiment: MIC, conventional broth-dilution microtiter test (Table IV); assay type: cell-based
Procedure: (§1) The MIC's s in Table III were determined by standard agar-dilution assays. The MIC's in Table IV were obtained using a conventional broth-dilution microtiter test.

[2] = system: Mycoplasma gallisepticum 29C; experiment: as above; assay type: cell-based; conditions: Mycoplasmoides gallisepticum, 29C
Procedure: as §1

[3] = system: Pasteurella multocida 22A; experiment: as above; assay type: cell-based
Procedure: as §1

[4] = system: Pasteurella hemolytica 23C; experiment: as above; assay type: cell-based
Procedure: as §1

[5] = system: Pasteurella hemolytica 22C; experiment: as above; assay type: cell-based
Procedure: as §1

[6] = system: Mycoplasma hyopneumoniae S5972; experiment: as above; assay type: cell-based; conditions: Mesomycoplasma hyopneumoniae
Procedure: as §1

[7] = system: Mycoplasma gallisepticum 36H; experiment: as above; assay type: cell-based; conditions: Mycoplasmoides gallisepticum
Procedure: as §1

[8] = system: Pasteurella hemolytica 41D; experiment: as above; assay type: cell-based
Procedure: as §1

[9] = system: Pasteurella multocida 60A; experiment: as above; assay type: cell-based
Procedure: as §1

[10] = system: Mycoplasma gallisepticum 15E; experiment: as above; assay type: cell-based; conditions: Mycoplasmoides gallisepticum
Procedure: as §1

[11] = system: Mycoplasma hyorhinis 29E; experiment: as above; assay type: cell-based; conditions: broth-dilution microtiter; Mycoplasma hyorhinis 29E; read-out: MIC
Procedure: as §1

[12] = system: Pasteurella multocida 68C; experiment: as above; assay type: cell-based
Procedure: as §1

[13] = system: Staphylococcus aureus 19C; experiment: as above; assay type: cell-based
Procedure: as §1

[14] = system: Bordetella bronchisepticum 95B; experiment: as above; assay type: cell-based
Procedure: as §1

[15] = system: Streptococcus sp. 19F; experiment: as above; assay type: cell-based
Procedure: as §1

[16] = system: Pasteurella multocida 17E; experiment: as above; assay type: cell-based
Procedure: as §1

[17] = system: Mycoplasma synoviae 40A; experiment: as above; assay type: cell-based; conditions: Mycoplasmopsis synoviae, 40A
Procedure: as §1

[18] = system: Streptococcus pyogenes; experiment: ED50 vs Streptococcus pyogenes experimental infection in mice (Table VI); assay type: in vivo; conditions: two doses, several values = results from more than one test
Procedure: (§2) Certain formula 1a compounds have also shown in vivo antimicrobial activity against experimental bacterial infections. When two doses of test compound were administered to mice in experimental infections, the activity observed was measured as an ED50 value [effective dose in mg/kg to protect 50% of the test animals: see Warren Wick, et al., J. Bacteriol. 81, 233-235 (1961)].

[19] = system: Staphylococcus aureus; experiment: ED50 vs. Staphylococcus aureus experimental infection in mice (Table V); assay type: in vivo; conditions: sc, subcutaneous, two doses, dose protecting 50% of animals, read-out: ED50 Subcutaneous
Procedure: as §2

[20] = system: Haemophilus influenzae 76; experiment: MIC, standard agar-dilution assay (Table III); assay type: cell-based
Procedure: as §1

[21] = system: Haemophilus influenzae C.L.; experiment: MIC, standard agar-dilution assay (Table III); assay type: cell-based
Procedure: as §1

[22] = system: Staphylococcus epidermidis EPI1; experiment: MIC, standard agar-dilution assay (Table III); assay type: cell-based; conditions: Staphylococcus epidermidis, EPI1
Procedure: as §1

[23] = system: Streptococcus Group D 2041; experiment: MIC, standard agar-dilution assay (Table III); assay type: cell-based; conditions: GROUPD2041
Procedure: as §1

[24] = system: Staphylococcus aureus S13E; experiment: MIC, standard agar-dilution assay (Table III); assay type: cell-based
Procedure: as §1

[25] = system: Staphylococcus aureus X400; experiment: MIC, standard agar-dilution assay (Table III); assay type: cell-based
Procedure: as §1

[26] = system: Staphylococcus aureus V41; experiment: MIC, standard agar-dilution assay (Table III); assay type: cell-based; conditions: Staphylococcus aureus V41, penicillin-resistant strain
Procedure: as §1

[27] = system: Staphylococcus aureus X1.1; experiment: MIC, standard agar-dilution assay (Table III); assay type: cell-based
Procedure: as §1

[28] = system: Streptococcus pyogenes C203; experiment: MIC, standard agar-dilution assay (Table III); assay type: cell-based
Procedure: as §1

[29] = system: Staphylococcus epidermidis 222; experiment: MIC, standard agar-dilution assay (Table III); assay type: cell-based
Procedure: as §1

[30] = system: Streptococcus Group D X66; experiment: MIC, standard agar-dilution assay (Table III); assay type: cell-based
Procedure: as §1

[31] = system: Pasteurella multocida; experiment: Activity in Pasteurella multocida-infected one-day-old chicks (Table VIII); assay type: in vivo; conditions: subcutaneous 30 mg/kg × 2, 1 and 4 hours post-challenge, all non-medicated chicks died within 24 hours
Procedure: Table VIII summarizes the results of tests in which illustrative compounds were evaluated against a Pasteurella infection in one-day-old chicks. The compounds were administered parenterally after challenge of the chicks with Pasteurella multocida (0.1 mL of a 10^-4 dilution of a twenty-hour tryptose broth culture of an avian P. multocida given subcutaneously). In these tests, all non-medicated infected chicks died within 24 hours of Pasteurella challenge. In the tests summarized in Table VIII, the compounds were administered by subcutaneous injection at a dosage of 30 mg/kg, 1 and 4 hours post-challenge of the chicks with P. multocida.

[32] = system: Streptococcus pneumoniae Park I; experiment: microbe, parasite or virus in culture; assay type: cell-based; conditions: Streptococcus pneumoniae
Procedure: as §1

[33] = system: Streptococcous pneumoniae; experiment: ED50 vs. Streptococcous pneumoniae experimental infection in mice (Table VII); assay type: in vivo; conditions: Mus musculus, sc, subcutaneous, two doses, read-out: ED50 Subcutaneous
Procedure: as §2

[34] = broth-dilution microtiter, Mycoplasma hyopneumoniae S5972, read-out: MIC
[35] = broth-dilution microtiter, Mycoplasma gallisepticum 36H, read-out: MIC
[36] = broth-dilution microtiter, Mycoplasma gallisepticum 15E, read-out: MIC
[37] = agar dilution, Haemophilus influenzae 76, ampicillin-resistant strain, read-out: MIC
[38] = agar dilution, Streptococcus pyogenes C203, read-out: MIC
[39] = agar dilution, Staphylococcus epidermidis 222, read-out: MIC
[40] = broth-dilution microtiter, Pasteurella multocida 40G, read-out: MIC
[41] = broth-dilution microtiter, Pasteurella multocida 22A, read-out: MIC
[42] = broth-dilution microtiter, Pasteurella hemolytica 23C, read-out: MIC
[43] = broth-dilution microtiter, Pasteurella hemolytica 41D, read-out: MIC
[44] = broth-dilution microtiter, Pasteurella multocida 68C, read-out: MIC

Structure (SMILES)	MIC [2]	MIC ([5]; Pasteurella, 22C)	MIC [6, 34]	MIC [7, 35]	MIC ([9]; Pasteurella multocida, 60A)	MIC [10, 36]	MIC [11]	MIC [14]	MIC [15]	MIC [17]	ED50 ([18]; po, read-out: ED50 Oral)	ED50 [19]	MIC [22]	MIC [23]	MIC [24]	MIC [26]	MIC [27]	MIC [30]	Number of Deaths/Number Treated [31]	ED50 [33]	also measured
CCC1OC(=O)CC(O)C(C)C(OC2OC(C)C(O)C(N(C)C)C2O)C(CC=O)CC(C)C(=O)C=CC(C)=CC1CNC12CC3CC(CC(C3)C1)C2 (stereo not drawn) [Compound 1, 23-deoxy-23-(1-adamantanylamino)-OMT]	0.097 µg/mL (≈ 0.133 µM)	3.12 µg/mL (≈ 4.27 µM)	< 0.024 µg/mL	6.25 µg/mL (≈ 8.55 µM)	0.78 µg/mL (≈ 1.07 µM)	6.25 µg/mL (≈ 8.55 µM)	0.39 µg/mL (≈ 0.534 µM)	6.25 µg/mL (≈ 8.55 µM)	< 0.048 µg/mL	< 0.048 µg/mL	> 100 mg/kg	3.58 mg/kg	0.5 µg/mL (≈ 0.684 µM)	0.5 µg/mL (≈ 0.684 µM)	0.5 µg/mL (≈ 0.684 µM)	0.5 µg/mL (≈ 0.684 µM)	0.5 µg/mL (≈ 0.684 µM)	0.5 µg/mL (≈ 0.684 µM)	0/10	2.5 mg/kg	MIC ([1]; Pasteurella multocida, 40G): 0.78 µg/mL (≈ 1.07 µM); MIC ([3]; Pasteurella multocida, 22A): 0.78 µg/mL (≈ 1.07 µM); MIC ([4]; Pasteurella, 23C): 1.56 µg/mL (≈ 2.13 µM); MIC ([8]; Pasteurella, 41D): 1.56 µg/mL (≈ 2.13 µM); MIC ([12]; Pasteurella multocida, 68C): 0.78 µg/mL (≈ 1.07 µM); MIC ([13]; Staphylococcus aureus, 19C): 0.78 µg/mL (≈ 1.07 µM); MIC ([16]; Pasteurella multocida, 17E): 0.78 µg/mL (≈ 1.07 µM); ED50 Oral ([18]; oral): 81.8 mg/kg × 2; MIC [20, 37]: 0.5 µg/mL (≈ 0.684 µM); MIC ([21]; Haemophilus influenzae): 2 µg/mL (≈ 2.74 µM); MIC ([25]; Staphylococcus aureus, X400): 0.5 µg/mL (≈ 0.684 µM); MIC [28, 38]: 0.125 µg/mL (≈ 0.171 µM); MIC [29, 39]: 0.125 µg/mL (≈ 0.171 µM); MIC ([32]; read-out: MIC): 0.06 µg/mL (≈ 0.0821 µM)
CCC1OC(=O)CC(O)C(C)C(OC2OC(C)C(O)C(N(C)C)C2O)C(CC=O)CC(C)C(=O)C=CC(C)=CC1CN1CC2CCC(CC2)C1 (stereo not drawn) [Compound 17, 23-(3-azabicyclo[3.2.2]nonan-3-yl)-OMT]	< 0.048 µg/mL				0.78 µg/mL (≈ 1.11 µM)		0.39 µg/mL (≈ 0.553 µM)	6.25 µg/mL (≈ 8.87 µM)	0.39 µg/mL (≈ 0.553 µM)	< 0.048 µg/mL	> 100 mg/kg	2.31 mg/kg	0.5 µg/mL (≈ 0.709 µM)	1 µg/mL (≈ 1.42 µM)	0.5 µg/mL (≈ 0.709 µM)	0.5 µg/mL (≈ 0.709 µM)	0.5 µg/mL (≈ 0.709 µM)	0.5 µg/mL (≈ 0.709 µM)	10/10	> 10 mg/kg	MIC [1, 40]: 0.39 µg/mL (≈ 0.553 µM); MIC [3, 41]: 0.39 µg/mL (≈ 0.553 µM); MIC [4, 42]: 0.39 µg/mL (≈ 0.553 µM); MIC ([5]; broth-dilution microtiter, Pasteurella hemolytica 22C, read-out: MIC): 0.39 µg/mL (≈ 0.553 µM); MIC ([6]; S5972): 0.048 µg/mL (≈ 0.0681 µM); MIC ([7]; 36H): 50 µg/mL (≈ 70.9 µM); MIC [8, 43]: 0.39 µg/mL (≈ 0.553 µM); MIC ([10]; 15E): 50 µg/mL (≈ 70.9 µM); MIC [12, 44]: 0.39 µg/mL (≈ 0.553 µM); MIC ([13]; Staphylococcus aureus, 19C): 0.78 µg/mL (≈ 1.11 µM); MIC ([16]; Pasteurella multocida, 17E): 0.78 µg/mL (≈ 1.11 µM); ED50 ([18]; sc, subcutaneous, read-out: ED50 Subcutaneous): 9.09 mg/kg; ED50 Subcutaneous ([18]; subcutaneous): > 10 mg/kg × 2; MIC ([20]; Haemophilus influenzae, 76): 2 µg/mL (≈ 2.84 µM); MIC ([21]; Haemophilus influenzae): 2 µg/mL (≈ 2.84 µM); MIC ([25]; Staphylococcus aureus, X400): 0.5 µg/mL (≈ 0.709 µM); MIC ([28]; Streptococcus pyogenes, C203): 0.25 µg/mL (≈ 0.355 µM); MIC ([29]; Staphylococcus epidermidis, 222): 0.25 µg/mL (≈ 0.355 µM); MIC [32]: 0.06 µg/mL (≈ 0.0851 µM)
CCC1OC(=O)CC(O)C(C)C(OC2OC(C)C(O)C(N(C)C)C2O)C(CC=O)CC(C)C(=O)C=CC(C)=CC1CN1CCCC2CCCCC21 (stereo not drawn) [Compound 20, 23-deoxy-23-(decahydroquinolin-1-yl)-OMT]	> 0.048 µg/mL	3.12 µg/mL (≈ 4.34 µM)	< 0.024 µg/mL	0.78 µg/mL (≈ 1.08 µM)		0.39 µg/mL (≈ 0.542 µM)	0.39 µg/mL (≈ 0.542 µM)	6.25 µg/mL (≈ 8.69 µM)	< 0.048 µg/mL	< 0.048 µg/mL	77 mg/kg	10 mg/kg	0.25 µg/mL (≈ 0.348 µM)	0.25 µg/mL (≈ 0.348 µM)	0.25 µg/mL (≈ 0.348 µM)	0.25 µg/mL (≈ 0.348 µM)	0.25 µg/mL (≈ 0.348 µM)	0.25 µg/mL (≈ 0.348 µM)	6/10 and 8/10	5 mg/kg	MIC [1, 40]: 0.39 µg/mL (≈ 0.542 µM); MIC [3, 41]: 0.78 µg/mL (≈ 1.08 µM); MIC [4, 42]: 0.78 µg/mL (≈ 1.08 µM); MIC [8, 43]: 1.56 µg/mL (≈ 2.17 µM); MIC ([9]; broth-dilution microtiter, Pasteurella multocida 60A, avian isolate, read-out: MIC): 0.78 µg/mL (≈ 1.08 µM); MIC [12, 44]: 0.78 µg/mL (≈ 1.08 µM); MIC ([13]; broth-dilution microtiter, Staphylococcus aureus 19C, read-out: MIC): 1.56 µg/mL (≈ 2.17 µM); MIC ([16]; broth-dilution microtiter, Pasteurella multocida 17E, bovine isolate, read-out: MIC): 0.78 µg/mL (≈ 1.08 µM); MIC [20, 37]: 1 µg/mL (≈ 1.39 µM); MIC ([21]; agar dilution, Haemophilus influenzae C.L., ampicillin-sensitive strain, read-out: MIC): 1 µg/mL (≈ 1.39 µM); MIC ([25]; agar dilution, Staphylococcus aureus X400, methicillin-resistant strain, read-out: MIC): 0.5 µg/mL (≈ 0.695 µM); MIC [28, 38]: 0.125 µg/mL (≈ 0.174 µM); MIC [29, 39]: 0.125 µg/mL (≈ 0.174 µM); MIC [32]: 0.03 µg/mL (≈ 0.0417 µM)
